{"source": "paper PMC3646298", "about": "(Pharmaceutical research, 2012)", "key": {"[1]": {"test_system": "U87MG", "assay": "SRB cytotoxicity assay in U87MG glioma", "format": "cell-based, human", "settings": "read-out: Cytotoxicity IC50, 96 h treatment, mean ± SD, N=3"}, "[2]": {"target": "colchicine-binding site on tubulin (Sus scrofa, UniProt P02550+P02554)", "assay": "Competitive mass spectrometry binding assay", "design": "species or system porcine", "settings": "tubulin 1 mg/mL, competitor 0.2–200 μM"}, "[3]": {"test_system": "PC-3", "assay": "Apoptosis", "format": "cell-based, human", "settings": "PC-3, 0.8–600 nmol/L, 24 h"}, "[4]": {"test_system": "PC-3/TxR", "assay": "Apoptosis", "format": "cell-based, human", "settings": "0.8–600 nmol/L, 24 h"}, "[5]": {"assay": "Paclitaxel-resistant PC-3/TxR tumor xenograft study", "format": "in vivo, nude mice", "settings": "male, athymic nude, mouse, tumor, po, 30 mg/kg"}, "[6]": {"test_system": "PC-3/TxR tumors", "assay": "Paclitaxel-resistant PC-3/TxR tumor xenograft study", "format": "in vivo, nude mice", "settings": "for Body weight Start / Body weight End / TGI: PC-3/TxR xenograft"}, "[7]": {"assay": "in vivo", "settings": "male (mice), female (rats, dogs), ICR (mouse), Sprague-Dawley (rat), beagle (dog), po"}, "[8]": {"assay": "in vivo", "settings": "female, beagle, dog, plasma, po, 5 mg/kg"}, "[9]": {"assay": "in vitro", "settings": "human, Caco-2"}, "[10]": {"assay": "Pharmacokinetic study in rats", "settings": "female, Sprague-Dawley, rat, plasma, po, 10 mg/kg"}, "[11]": {"test_system": "PPC-1", "assay": "SRB cytotoxicity assay in PPC-1", "format": "cell-based", "settings": "Homo sapiens, PPC-1, 96 h, read-out: Cytotoxicity IC50"}, "[12]": {"test_system": "PC-3/TxR", "assay": "SRB cytotoxicity assay in paclitaxel-resistant PC-3/TxR", "format": "cell-based, human"}, "[13]": {"test_system": "PC-3 tumors", "assay": "PC-3 tumor xenograft study", "format": "in vivo, nude mice", "settings": "PC-3 xenograft, day 1 and 9, end point day 19"}, "[14]": {"test_system": "LNCaP", "settings": "read-out: Cytotoxicity IC50, ref Ahn et al., MCT 9:2959, 2010 ([33]); cited from earlier work"}, "[15]": {"test_system": "Du-145", "settings": "read-out: Cytotoxicity IC50, ref Ahn et al., MCT 9:2959, 2010 ([33]); cited from earlier work"}, "[16]": {"test_system": "PPC-1", "settings": "read-out: Cytotoxicity IC50, ref Ahn et al., MCT 9:2959, 2010 ([33]); cited from earlier work"}, "[17]": {"settings": "cited from earlier work"}, "[18]": {"settings": "PO 10 mg/kg, b.i.d×5/w, end point day 26"}, "[19]": {"settings": "IV 10 mg/kg, day 1 and 9, end point day 19"}, "[20]": {"settings": "IV 20 mg/kg, day 1 and 9, end point day 19"}}, "note": "Like-named read-outs stand apart in the source and are kept apart here."}
{"compound": "COc1cc(C(=O)c2csc(Nc3ccc4[nH]ccc4c3)n2)cc(OC)c1OC", "note": "[IAT, (2-(1H-indol-5-ylamino)-thiazol-4-yl)(3,4,5-trimethoxyphenyl)methanone]", "values": [{"measurement": "IC50", "setting": "[1]", "value": "0.022 ± 0.03", "unit": "µM"}, {"measurement": "competition with colchicine for tubulin binding", "setting": "[2]", "value": "competed effectively with colchicine for tubulin binding"}, {"measurement": "induction of cell apoptosis (DNA histone complex formation)", "setting": "[3]", "value": "equally potent in their ability to induce cell apoptosis"}, {"measurement": "induction of cell apoptosis (DNA histone complex formation)", "setting": "[4]", "value": "equally potent in their ability to induce cell apoptosis"}, {"measurement": "Kp at 1 h", "setting": "[5]", "value": "0.43 ± 0.33"}, {"measurement": "Body weight Start", "setting": "[6]; PO 10 mg/kg, b.i.d×5/w", "value": "29 ± 2", "unit": "g"}, {"measurement": "Body weight End", "setting": "[6]; [18]", "value": "26 ± 3", "unit": "g"}, {"measurement": "TGI", "setting": "[6]; [18]", "value": 59, "unit": "%"}, {"measurement": "Body weight Start", "setting": "[6]; PO 30 mg/kg, b.i.d×5/w", "value": "29 ± 3", "unit": "g"}, {"measurement": "Body weight End", "setting": "[6]; PO 30 mg/kg, b.i.d×5/w, end point day 26", "value": "30 ± 2", "unit": "g"}, {"measurement": "Tumor growth inhibition", "setting": "[6]; paclitaxel-resistant prostate cancer xenograft, treated orally at doses of 3–30 mg/kg", "value": "greater than 100%"}, {"measurement": "bioavailability", "setting": "[7]", "value": "24 to 36", "unit": "%"}, {"measurement": "bioavailability", "setting": "[8]", "value": 36, "unit": "%"}, {"measurement": "Papp A→B", "setting": "[9]", "value": 99, "unit": "×10⁻⁶ cm/s"}, {"measurement": "bioavailability", "setting": "[10]", "value": 24, "unit": "%"}]}
{"compound": "CC(=O)O[C@H]1C(=O)[C@@]2(C)[C@H]([C@H](OC(=O)c3ccccc3)[C@]3(O)C[C@H](OC(=O)[C@H](O)[C@@H](NC(=O)c4ccccc4)c4ccccc4)C(C)=C1C3(C)C)[C@]1(OC(C)=O)CO[C@@H]1C[C@@H]2O", "note": "[Paclitaxel]", "values": [{"measurement": "IC50", "setting": "[11]", "value": "0.023 ± 0.0008", "unit": "µM"}]}
{"compound": "CC(=O)O[C@@]12CO[C@@H]1C[C@H](O)[C@@]1(C)C(=O)[C@H](O)C3=C(C)[C@@H](OC(=O)[C@H](O)[C@@H](NC(=O)OC(C)(C)C)c4ccccc4)C[C@@](O)([C@@H](OC(=O)c4ccccc4)[C@H]21)C3(C)C", "note": "[Docetaxel]", "values": [{"measurement": "Resistance factor (IC50 in PC-3/TxR compared with PC-3)", "setting": "[12]", "value": 15}, {"measurement": "IC50", "setting": "[12]; Homo sapiens, PC3-TxR, 96 h, read-out: Cytotoxicity IC50", "value": "0.018 ± 0.0007", "unit": "µM"}, {"measurement": "induction of cell apoptosis (DNA histone complex formation)", "setting": "[3]", "value": "potently induced cell apoptosis"}, {"measurement": "induction of cell apoptosis (DNA histone complex formation)", "setting": "[4]", "value": "substantially weaker"}, {"measurement": "Body weight End", "setting": "[13]; IV 10 mg/kg", "value": "24 ± 2", "unit": "g"}, {"measurement": "Body weight End", "setting": "[13]; IV 20 mg/kg", "value": "24 ± 3", "unit": "g"}, {"measurement": "Body weight End", "setting": "[6]; [19]", "value": "25 ± 2", "unit": "g"}, {"measurement": "TGI", "setting": "[6]; [19]", "value": 14, "unit": "%"}, {"measurement": "Body weight End", "setting": "[6]; [20]", "value": "25 ± 4", "unit": "g"}, {"measurement": "TGI", "setting": "[6]; [20]", "value": 56, "unit": "%"}, {"measurement": "IC50", "setting": "[14]", "value": "0.0047 ± 0.0013", "unit": "µM"}, {"measurement": "IC50", "setting": "[15]", "value": "0.0052 ± 0.001", "unit": "µM"}, {"measurement": "IC50", "setting": "[16]", "value": "0.0027 ± 0.001", "unit": "µM"}]}
{"compound": "CC[C@]1(O)C[C@@H]2CN(CCc3c([nH]c4ccccc34)[C@@](C(=O)OC)(c3cc4c(cc3OC)N(C)[C@H]3[C@@](O)(C(=O)OC)[C@H](OC(C)=O)[C@]5(CC)C=CCN6CC[C@]43[C@@H]65)C2)C1", "note": "[Vinblastine]", "values": [{"measurement": "competition with colchicine for tubulin binding", "setting": "[2]", "value": "did not inhibit colchicine binding to tubulin"}]}
{"compound": "COc1cc(C(=O)c2csc(-c3ccccc3)n2)cc(OC)c1OC", "note": "[SMART-H, 4-(3,4,5-trimethoxybenzoyl)-2-phenyl-thiazole]", "values": [{"measurement": "neurotoxicity", "setting": "[17]", "value": "did not find any signs of obvious neurotoxicity"}]}
